In PMC4092373, “Cell-secreted Flavins Bound to Membrane Cytochromes Dictate Electron Transfer Reactions to Surfaces with Diverse Charge and pH” (Scientific Reports, 2014):

How the values were obtained:
[1] = target: T1, MtrC (Shewanella oneidensis, UniProt Q8EG34); experiment: whole-cell differential pulse voltammetry; format: cell-based; details: rough estimate in living wild-type MR-1 monolayer biofilm; printed for FMN and OM c-Cyts collectively, assigned to MtrC by gene deletions; saturation assumed at 52 μM FMN; semiquinone form bound under
T1 construct: native outer-membrane decaheme cytochrome in intact living cells (monolayer biofilm on ITO electrode), not purified

[2] = target: T2, OmcA (Shewanella oneidensis, UniProt Q8EG33); experiment: whole-cell differential pulse voltammetry; format: cell-based; details: redox peak potential of bound riboflavin, no affinity constant; delta-mtrC cells, 2.0 μM RF, 10 mM lactate, 30 °C; shift lost in delta-omcA cells
T2 construct: native outer-membrane decaheme cytochrome in intact living cells (wild type and delta-mtrC strain on ITO electrode), not purified
T2 sequence (Q8EG33 entry or part of it): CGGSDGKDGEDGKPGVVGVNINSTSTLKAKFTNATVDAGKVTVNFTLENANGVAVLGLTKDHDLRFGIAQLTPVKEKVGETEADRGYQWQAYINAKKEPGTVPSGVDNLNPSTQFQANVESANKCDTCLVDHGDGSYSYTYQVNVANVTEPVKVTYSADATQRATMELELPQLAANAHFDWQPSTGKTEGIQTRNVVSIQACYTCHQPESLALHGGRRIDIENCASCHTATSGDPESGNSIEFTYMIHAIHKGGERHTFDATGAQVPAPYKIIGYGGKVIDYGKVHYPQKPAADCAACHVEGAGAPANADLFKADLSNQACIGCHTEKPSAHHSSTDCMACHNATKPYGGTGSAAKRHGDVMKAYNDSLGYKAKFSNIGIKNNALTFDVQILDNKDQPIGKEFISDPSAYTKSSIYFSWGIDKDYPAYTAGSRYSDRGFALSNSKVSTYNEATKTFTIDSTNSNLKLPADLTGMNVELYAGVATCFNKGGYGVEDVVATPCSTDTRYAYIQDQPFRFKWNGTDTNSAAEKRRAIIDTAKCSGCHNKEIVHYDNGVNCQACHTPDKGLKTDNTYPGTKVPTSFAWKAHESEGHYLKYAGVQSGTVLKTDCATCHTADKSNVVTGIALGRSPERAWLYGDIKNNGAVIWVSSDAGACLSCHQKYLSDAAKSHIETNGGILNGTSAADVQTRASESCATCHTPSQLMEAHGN

T1 sequence (Q8EG34 entry or part of it): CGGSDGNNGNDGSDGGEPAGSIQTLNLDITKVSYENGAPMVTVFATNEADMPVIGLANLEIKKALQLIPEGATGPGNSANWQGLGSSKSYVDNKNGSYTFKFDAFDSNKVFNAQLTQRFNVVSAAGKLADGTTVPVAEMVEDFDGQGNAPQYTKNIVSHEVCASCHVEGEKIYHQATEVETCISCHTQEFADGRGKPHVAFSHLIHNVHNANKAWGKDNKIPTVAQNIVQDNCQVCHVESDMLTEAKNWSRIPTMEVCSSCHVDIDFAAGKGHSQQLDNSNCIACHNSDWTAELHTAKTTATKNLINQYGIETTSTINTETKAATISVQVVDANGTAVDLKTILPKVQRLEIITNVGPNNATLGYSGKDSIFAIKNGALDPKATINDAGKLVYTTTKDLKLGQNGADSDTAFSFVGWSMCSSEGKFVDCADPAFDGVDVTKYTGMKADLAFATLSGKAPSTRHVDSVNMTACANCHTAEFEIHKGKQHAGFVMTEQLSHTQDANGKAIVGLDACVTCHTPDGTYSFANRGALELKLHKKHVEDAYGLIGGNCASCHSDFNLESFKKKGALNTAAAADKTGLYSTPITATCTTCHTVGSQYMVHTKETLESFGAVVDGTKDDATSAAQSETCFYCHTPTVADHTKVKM

| SMILES | Kd [1] [µM] | Ep [2] [mV] |
| --- | --- | --- |
| Cc1cc2nc3c(=O)[nH]c(=O)nc-3n(C[C@H](O)[C@H](O)[C@H](O)COP(=O)(O)O)c2cc1C [FMN, flavin mononucleotide] | ~10 |  |
| Cc1cc2nc3c(=O)[nH]c(=O)nc-3n(C[C@H](O)[C@H](O)[C@H](O)CO)c2cc1C [RF, riboflavin] |  | −102 |
